Assay results published in patent US20100004485A1, “GABAPENTIN ENACARBIL SALTS AND PROCESSES FOR THEIR PREPARATION” (priority 2008, published 2010).

What was measured:
[1] = Solubility test in distilled water; type: physicochemical; details: for Solubility in water (class in words) / Solubility (g/ml water): distilled water; for Solubility (g/ml water): 100 mg sample
Method: Solubility was determined by placing 100 mg of sample material in a 50 ml glass beaker, adding 10 μL portions of distilled water and agitating until dissolved.

[2] = Hygroscopicity / water content at room conditions (TGA, FIG. 6); type: physicochemical; details: for Hygroscopicity: room conditions, GBPE-Ca compared to GBPE sodium salt
Method: Thermogravimetric Analysis (“TGA”) • TGA data obtained from TGA/DSC 1 of Mettler-Toledo or TA Instruments TGA 2959 • Heating range: 25-200 C; heating rate: 10° C./min, • Nitrogen flow 40 ml/min • Mass weight about 10 mg.

[3] = Thermogravimetric analysis (TGA): temperature at which thermal decomposition starts; type: physicochemical; details: 25-200 C, 10° C./min, nitrogen
[4] = long period of storing

Row | Structure (SMILES) | Solubility in water (class in words) [1] | Hygroscopicity [2] | Temperature at which decomposition starts [3] [°C] | Water content when kept in room conditions ([2]; FIG. 6) | Solubility (g/ml water) [1] [g/mL] | Stability of form during storage [4] | Solubility compared to GBPE sodium salt [1]
1 | CC(OC(=O)NCC1(CC(=O)O)CCCCC1)OC(=O)C(C)C (stereo not drawn) [GBPE amorphous, 1-{[(α-isobutanoyloxyethoxy)carbonyl]-aminomethyl}-1-cyclohexane acetic acid, reference compound] | insoluble |  |  |  |  |  | 
2 | CC(OC(=O)NCC1(CC(=O)[O-])CCCCC1)OC(=O)C(C)C.[Na+] (stereo not shown) [GBPE sodium salt, reference compound] |  | extremely hydrophilic |  |  |  |  | 
3 | CC(OC(=O)NCC1(CC(=O)[O-])CCCCC1)OC(=O)C(C)C.CC(OC(=O)NCC1(CC(=O)[O-])CCCCC1)OC(=O)C(C)C.[Ba+2] (stereo not shown) [GBPE-Ba salt] | freely soluble (a compound having a solubility of about 0.1 to about 1 g/ml) | non-hygroscopic | 60 | contained no water | 0.125 | stability over a long period of time | 
4 | CC(OC(=O)NCC1(CC(=O)[O-])CCCCC1)OC(=O)C(C)C.CC(OC(=O)NCC1(CC(=O)[O-])CCCCC1)OC(=O)C(C)C.[Ca+2] (stereo not shown) [GBPE-Ca salt] | sparingly soluble (a compound having a solubility of about 0.01 g/ml to about 0.03 g/ml) | less hygroscopic | 70 |  | 0.016 |  | less soluble
5 | CC(OC(=O)NCC1(CC(=O)[O-])CCCCC1)OC(=O)C(C)C.CC(OC(=O)NCC1(CC(=O)[O-])CCCCC1)OC(=O)C(C)C.[Mg+2] (stereo not shown) [GBPE-Mg salt] | sparingly soluble (a compound having a solubility of about 0.01 g/ml to about 0.03 g/ml) |  | 70 |  | 0.020 |  | 
